From patent US20240208964A1, “PYRIDOPYRIMIDINES AND METHODS OF THEIR USE” (PYRIDOPYRIMIDINES AND METHODS OF THEIR USE, priority 2020, published 2024)
pIC50: −log10 of the molar value. Where two headings read alike, the source gives them in different places.

Tests used:
[1] = system: PIKFYVE TDP-43 yeast strain; experiment: Propidium iodide viability assay in PIKFYVE TDP-43 yeast strain; format: cell-based; details: Saccharomyces cerevisiae; reduction in PI-positive cells, 24 hours, up to 15 μM
From the text: Generation of TDP-43 yeast model expressing human PIKfyve. Human PIKFYVE (“entry clone”) was cloned into pAG416GPDccdB (“destination vector”) according to standard Gateway cloning protocols (Invitrogen, Life Technologies). The resulting pAG416GPD-PIKFYVE plasmids were amplified in E. coli and plasmid identity confirmed by restriction digest and Sanger sequencing. Lithium acetate/polyethylene glycol-based transformation was used to introduce the above PIKFYVE plasmid into a BY4741 yeast strain auxotrophic for the ura3 gene and deleted for two transcription factors that regulate the xenobiotic efflux pumps, a major efflux pump, and FAB1, the yeast ortholog of PIKFYVE (MATa, snq2::KILeu2; pdr3::Klura3;pdrl::NATMX; fab1::G418^R, his3;leu2;ura3;met15;LYS2+) (FIG. 2). Transformed yeast were plated on solid agar plates with complete synthetic media lacking uracil (CSM-ura) and containing 2% glucose. Individual colonies harboring the control or PIKFYVE TDP-43 plasmids were recovered. A plasmid containing wild-type TDP-43 under the transcriptional control of the GAL1 promoter and containing the hygromycin-resistance gene as a selectable marker was transformed into the fab1::G418^R pAG416GPD-PIKFYVE yeast strain (FIG. 1). Transformed yeast were plated on CSM-ura containing 2% glucose and 200 μg/mL […] after overnight recovery in media lacking antibiotic. Multiple independent isolates were further evaluated for cytotoxicity and TDP-43 expression levels.
Viability Assay. A control yeast strain with the wild-type yeast FAB1 gene and TDP-43 (“FAB1 TDP-43”, carries empty pAG416 plasmid), and the “PIKFYVE TDP-43” yeast strain, were assessed for toxicity using a propidium iodide viability assay. Both yeast strains were transferred from solid CSM-ura/2% glucose agar plates into 3 mL of liquid CSM-ura/2% glucose media for 6-8 hours at 30° C. with aeration. Yeast cultures were then diluted to an optical density at 600 nm wavelength (OD600) of 0.005 in 3 mL of CSM-ura/2% raffinose and grown overnight at 30° C. with aeration to an OD600 of 0.3-0.8. Log-phase overnight cultures were diluted to OD600 of 0.005 in CSM-ura containing either 2% raffinose or galactose and 150 μL dispensed into each well of a flat bottom 96-well plates. Compounds formulated in 100% dimethyl sulfoxide (DMSO) were serially diluted in DMSO and 1.5 μL diluted compound transferred to the 96-well plates using a multichannel pipet. Wells containing DMSO alone were also evaluated as controls for compound effects. Tested concentrations ranged from 15 μM to 0.11 μM. Cultures were immediately mixed to ensure compound distribution and covered plates incubated at 30° C. for 24 hours in a stationary, humified incubator.
Upon the completion of incubation, cultures were assayed for viability using propidium iodide (PI) to stain for dead/dying cells. A working solution of PI was made where, for each plate, 1 μL of 10 mM PI was added to 10 mL of CSM-ura (raffinose or galactose). The final PI solution (50 μL/well) was dispensed into each well of a new round bottom 96-well plate. The overnight 96-well assay plate was then mixed with a multichannel pipet and 50 μL transferred to the PI-containing plate. This plate was then incubated for 30 minutes at 30° C. in the dark. A benchtop flow cytometer (Miltenyi MACSquant) was then used to assess red fluorescence (B2 channel), forward scatter, and side scatter (with following settings: gentle mix, high flow rate, fast measurement, 10,000 events). Intensity histograms were then gated for “PI-positive” or “PI-negative” using the raffinose and galactose cultures treated with DMSO as controls. The DMSO controls for raffinose or galactose-containing cultures were used to determine the window of increased cell death and this difference set to 100. All compounds were similarly gated and then compared to this maximal window to establish the percent reduction in PI-positive cells.

[2] = target: full-length human PIKFYVE (GST-PIKFYVE) (Homo sapiens (Human), UniProt Q9Y2I7, L932S/Q1183K/Q995L/S1033A/S696N/T998S); experiment: PIKfyve biochemical assay (ADP-Glo Kinase assay, Carna Biosciences)
From the text: PIKfyve Biochemical Assay. The biochemical PIKFyve inhibition assays were run by Carna Biosciences according to proprietary methodology based on the Promega ADP-Glo™ Kinase assay. A full-length human PIKFYVE [1-2098(end) amino acids and S696N, L932S, Q995L, T998S, S1033A and Q1183K of the protein having the sequence set forth in NCBI Reference Sequence No. NP_055855.2] was expressed as N-terminal GST-fusion protein (265 kDa) using baculovirus expression system. GST-PIKFYVE was purified by using glutathione sepharose chromatography and used in an ADP-Glo™ Kinase assay (Promega). Reactions were set up by adding the test compound solution, substrate solution, ATP solution and kinase solution, each at 4× final concentrations. Reactions were prepared with assay buffer (50 mM MOPS, 1 mM DTT, pH7.2), mixed, and incubated in black 384 well polystyrene plates for 1 hour at room temperature. ADP-Glo™ reagent was then added for 40 minutes, followed by kinase detection reagent for an additional 40 minutes. The kinase activity was evaluated by detecting relative light units on a luminescence plate reader. Samples were run in duplicate from 10 μM to 3 nM. […] IC50 values were calculated from concentration vs % inhibition curves by fitting to a four-parameter logistic curve.
The biochemical PIKFyve inhibition assays were run by Carna Biosciences according to proprietary methodology based on the Promega ADP-Glo™ Kinase assay. A full-length human PIKFYVE [1-2098(end) amino acids and S696N, L932S, Q995L, T998S, S1033A and Q1183K of accession number NP_055855.2] was expressed as N-terminal GST-fusion protein (265 kDa) using baculovirus expression system. GST-PIKFYVE was purified by using glutathione sepharose chromatography and used in an ADP-Glo™ Kinase assay (Promega).
Reactions were set up by adding the test compound solution, substrate solution, ATP solution and kinase solution, each at 4× final concentrations. Reactions were prepared with assay buffer (50 mM MOPS, 1 mM DTT, pH7.2), mixed, and incubated in black 384 well polystyrene plates for 1 hour at room temperature. ADP-Glo™ reagent was then added for 40 minutes, followed by kinase detection reagent for an additional 40 minutes. The kinase activity was evaluated by detecting relative light units on a luminescence plate reader. Samples were run in duplicate from 10 uM to 3 nM. […] IC50 values were calculated from concentration vs % inhibition curves by fitting to a four-parameter logistic curve.

[3] = target: PIKfyve (PIKFYVE-NanoLuc fusion in HEK293 cells) (Homo sapiens (Human), UniProt Q9Y2I7); experiment: NanoBRET TE Intracellular Kinase Assay, K-8 (Promega) cell-based assay; details: 2 hours, read-out: hPIKfyve BRET IC50
Experimental: NanoBRET™ TE Intracellular Kinase Assay, K-8 (Promega) Cell-Based Assay. Intracellular inhibition of PIKfyve was assayed using Promega's NanoBRET™ TE Intracellular Kinase Assay, K-8 according to manufacturer's instructions. A dilution series of test compounds was added for 2 hours to HEK293 cells transfected for a minimum of 20 hours with PIKFYVE-NanoLuc® Fusion Vector (Promega) containing a full-length PIKfyve according to manufacturer's specifications in a 96-well plate. Kinase activity was detected by addition of a NanoBRET™ tracer reagent, which was a proprietary PIKfyve inhibitor appended to a fluorescent probe (BRET, bioluminescence resonance energy transfer). Test compounds were tested at concentrations of 10, 3, 1, 0.3, 0.1, 0.03, 0.01, 0.003 μM. BRET signals were measured by a GloMax®Discover Multimode Microplate Reader (Promega) using 0.3 sec/well integration time, 450BP donor filter and 600LP acceptor filters. Active test compounds that bound PIKfyve and displaced the tracer reduced BRET signal. IC50 values were then calculated by fitting the data to the normalized BRET ratio.

[4] = ADP-Glo, full-length human PIKFYVE, read-out: hPIKfyve IC50

Sequence of full-length human PIKFYVE (GST-PIKFYVE) (Q9Y2I7 whole entry S696N/L932S/Q995L/T998S/S1033A/Q1183K, the tested form may be a part): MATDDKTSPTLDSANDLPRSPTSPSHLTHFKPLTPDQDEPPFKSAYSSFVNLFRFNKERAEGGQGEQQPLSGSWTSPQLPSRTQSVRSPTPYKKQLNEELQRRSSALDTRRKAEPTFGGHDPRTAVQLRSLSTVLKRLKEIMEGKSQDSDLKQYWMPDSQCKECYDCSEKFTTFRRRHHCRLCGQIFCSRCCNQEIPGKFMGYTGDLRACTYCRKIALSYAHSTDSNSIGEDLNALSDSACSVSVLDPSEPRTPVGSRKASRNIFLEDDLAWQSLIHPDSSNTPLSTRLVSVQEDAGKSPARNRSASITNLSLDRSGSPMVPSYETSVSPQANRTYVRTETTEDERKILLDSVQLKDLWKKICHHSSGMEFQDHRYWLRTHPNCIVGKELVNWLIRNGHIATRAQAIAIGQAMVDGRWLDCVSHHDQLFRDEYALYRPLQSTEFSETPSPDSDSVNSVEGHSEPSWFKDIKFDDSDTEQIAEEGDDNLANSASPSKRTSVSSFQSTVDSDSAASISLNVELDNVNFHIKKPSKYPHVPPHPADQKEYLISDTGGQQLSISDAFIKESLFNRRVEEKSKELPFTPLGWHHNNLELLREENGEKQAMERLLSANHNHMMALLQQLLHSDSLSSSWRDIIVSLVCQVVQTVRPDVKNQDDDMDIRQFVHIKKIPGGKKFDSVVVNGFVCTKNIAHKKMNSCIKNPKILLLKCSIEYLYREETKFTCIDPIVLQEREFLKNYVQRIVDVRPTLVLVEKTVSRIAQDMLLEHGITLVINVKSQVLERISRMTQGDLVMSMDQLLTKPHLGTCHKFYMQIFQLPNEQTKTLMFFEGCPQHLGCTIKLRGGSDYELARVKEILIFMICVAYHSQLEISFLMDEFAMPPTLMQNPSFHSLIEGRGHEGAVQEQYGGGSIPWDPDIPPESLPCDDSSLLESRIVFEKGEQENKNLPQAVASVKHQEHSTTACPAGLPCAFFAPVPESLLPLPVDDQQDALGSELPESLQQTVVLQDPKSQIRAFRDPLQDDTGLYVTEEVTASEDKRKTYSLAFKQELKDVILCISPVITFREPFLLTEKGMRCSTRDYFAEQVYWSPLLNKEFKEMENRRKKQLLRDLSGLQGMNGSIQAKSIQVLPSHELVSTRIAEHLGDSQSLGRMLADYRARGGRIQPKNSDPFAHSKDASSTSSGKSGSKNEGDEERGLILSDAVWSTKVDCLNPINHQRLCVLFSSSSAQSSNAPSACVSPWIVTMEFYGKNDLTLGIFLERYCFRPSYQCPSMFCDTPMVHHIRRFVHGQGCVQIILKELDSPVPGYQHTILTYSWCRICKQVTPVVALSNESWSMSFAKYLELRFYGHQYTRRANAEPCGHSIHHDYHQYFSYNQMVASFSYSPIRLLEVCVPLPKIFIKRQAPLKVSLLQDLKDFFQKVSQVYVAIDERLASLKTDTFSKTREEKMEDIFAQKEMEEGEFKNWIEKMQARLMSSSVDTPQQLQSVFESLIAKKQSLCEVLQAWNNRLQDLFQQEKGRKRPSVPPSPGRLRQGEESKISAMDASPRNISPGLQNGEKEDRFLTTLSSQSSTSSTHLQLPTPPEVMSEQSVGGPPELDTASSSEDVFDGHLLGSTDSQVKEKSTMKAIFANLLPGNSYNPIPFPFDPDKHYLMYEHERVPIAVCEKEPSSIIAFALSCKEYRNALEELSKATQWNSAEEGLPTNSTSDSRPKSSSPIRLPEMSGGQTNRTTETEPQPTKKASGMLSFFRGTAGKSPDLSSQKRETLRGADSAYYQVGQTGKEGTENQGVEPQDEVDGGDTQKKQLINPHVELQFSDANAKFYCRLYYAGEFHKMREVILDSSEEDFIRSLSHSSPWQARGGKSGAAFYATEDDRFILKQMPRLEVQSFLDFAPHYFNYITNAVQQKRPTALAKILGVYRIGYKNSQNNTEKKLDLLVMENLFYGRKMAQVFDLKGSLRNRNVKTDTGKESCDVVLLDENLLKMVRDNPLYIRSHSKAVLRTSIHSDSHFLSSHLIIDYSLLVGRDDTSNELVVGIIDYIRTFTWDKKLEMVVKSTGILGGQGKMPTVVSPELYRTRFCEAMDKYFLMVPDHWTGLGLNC
Sequence of PIKfyve (PIKFYVE-NanoLuc fusion in HEK293 cells) (Q9Y2I7 whole entry, the tested form may be a part): as the sequence (Q9Y2I7 whole entry S696N/L932S/Q995L/T998S/S1033A/Q1183K, the tested form may be a part) above, with N696S, S932L, L995Q, S998T, A1033S, K1183Q counted along it

| Compound | pIC50 [2, 4] | further results |
| --- | --- | --- |
| Cc1cccc(/C=N/Nc2cc(N3CCOCC3)nc(OCCc3ccc(CN)cc3)n2)c1 | – | pIC50 [1]: 5.95 |
| c1ccc(-c2cccc(-c3cc(N4CCOCC4)n4nc(-c5ccncc5)cc4n3)n2)cc1 | – | pIC50 [1]: 6.64 |
| Oc1cc(-c2ccccc2)nn1-c1cc(N2CCOCC2)n2nc(-c3ccncc3)nc2n1 | – | pIC50 [1]: 6.16 |
| Oc1cc(C2CCOCC2)nn1-c1cc(N2CCOCC2)n2nc(-c3ccncc3)cc2n1 | – | pIC50 [1]: 5.04 |
| c1ccc(-c2ccnc(-c3cc(N4CCOCC4)nc(OCc4ccncc4)n3)n2)cc1 | – | pIC50 [1]: 5.84 |
| c1ccc(N2CCc3c(OCc4cccnc4)nc(N4CCOCC4)nc32)cc1 | – | pIC50 [1]: 5.57 |
| Fc1cccc(-c2ccnn2-c2nc(N3CCOCC3)c3ncccc3n2)c1 | – | pIC50 [1]: 5.24; pIC50 ([2]; values plotted in FIG. 7, read-out: PIKFYVE Biochemistry (IC50)): < 5.00 |
| c1ccc(-c2ccn(-c3nc(N4CCOCC4)c4ncccc4n3)n2)cc1 [compound 8, 4-(2-(3-phenyl-1H-pyrazol-1-yl)pyrido[3,2-d]pyrimidin-4-yl)morpholine] | 7.00 to 8.00 | pIC50 [3]: 6.00 to 7.00 |
| c1ccc(-c2ccn(-c3nc(N4CCOCC4)c4ncc(C5CCCCO5)cc4n3)n2)cc1 (centres unmarked) [compound 18, 4-(2-(3-Phenyl-1H-pyrazol-1-yl)-7-(tetrahydro-2H-pyran-2-yl)pyrido[3,2-d]pyrimidin-4-yl)morpholine] | 7.00 to 8.00 | pIC50 [3]: 6.00 to 7.00 |
| c1ccc(-c2ccn(-c3nc(N4CCOCC4)c4ncc(C5CCOCC5)cc4n3)n2)cc1 [compound 20, 4-[2-(3-phenylpyrazol-1-yl)-7-tetrahydropyran-4-yl-pyrido[3,2-d]pyrimidin-4-yl]morpholine] | 7.00 to 8.00 | pIC50 [3]: 6.00 to 7.00 |
| C1=C(c2cnc3c(N4CCOCC4)nc(-n4ccc(-c5ccccc5)n4)nc3c2)CCOC1 [compound 21, 4-(7-(3,6-dihydro-2H-pyran-4-yl)-2-(3-phenyl-1H-pyrazol-1-yl)pyrido[3,2-d]pyrimidin-4-yl)morpholine] | 7.00 to 8.00 | pIC50 [3]: 7.00 to 8.00 |
| c1ccc(-c2ccn(-c3nc(N4CCOCC4)c4ncc(C5CCCO5)cc4n3)n2)cc1 (centres unmarked) [compound 22, 4-(2-(3-phenyl-1H-pyrazol-1-yl)-7-(tetrahydrofuran-2-yl)pyrido[3,2-d]pyrimidin-4-yl)morpholine] | 7.00 to 8.00 | pIC50 [3]: 6.00 to 7.00 |
| Cc1cccc(/C=N/Nc2nc(N3CCOCC3)c3ncccc3n2)c1 [compound 24, (E)-4-(2-(2-(3-methylbenzylidene)hydrazinyl)pyrido[3,2-d]pyrimidin-4-yl)morpholine] | 7.00 to 8.00 | pIC50 [3]: 7.00 to 8.00 |
| c1cnc2c(N3CCOCC3)nc(-c3ccnc(N4CCOCC4)n3)nc2c1 [compound 51, 4-[4-(4-morpholinopyrido[3,2-d]pyrimidin-2-yl)pyrimidin-2-yl]morpholine] | 5.00 to 6.00 | – |
| CC(C)(C)OC(=O)N1CCN(c2nccc(-c3nc(N4CCOCC4)c4ncccc4n3)n2)CC1 [compound 55, tert-butyl 4-[4-(4-morpholinopyrido[3,2-d]pyrimidin-2-yl)pyrimidin-2-yl]piperazine-1-carboxylate] | 5.00 to 6.00 | – |
| c1cncc(Cc2nc(N3CCOCC3)c3ncccc3n2)c1 [compound 72] | 7.00 to 8.00 | – |

| Compound | pIC50 [2, 4] | further results |
| --- | --- | --- |
| O=C(c1cccnc1)c1nc(N2CCOCC2)c2ncccc2n1 [compound 73] | 6.00 to 7.00 | – |
| c1coc(-c2nc(N3CCOCC3)c3ncccc3n2)c1 [compound 74] | 6.00 to 7.00 | – |
| c1cncc(Oc2nc(N3CCOCC3)c3ncccc3n2)c1 [compound 75] | 7.00 to 8.00 | – |
| Cc1cccc(CCNc2nc(N3CCOCC3)c3ncc(C(O)c4cccnc4)cc3n2)c1 (centres unmarked) [compound 76] | 6.00 to 7.00 | – |
| Cc1cccc(CCNc2nc(N3CCOCC3)c3ncc(C(=O)c4cccnc4)cc3n2)c1 [compound 77] | 6.00 to 7.00 | – |
| Cc1cccc(CCNc2nc(N3CCOCC3)c3ncc(Cc4cccnc4)cc3n2)c1 [compound 78] | 6.00 to 7.00 | – |
| Clc1nc(N2CCOCC2)c2ncc(Cc3cccnc3)cc2n1 [compound 82] | 5.00 to 6.00 | – |
| Fc1cccc(Nc2nc(N3CCOCC3)c3ncc(Cc4cccnc4)cc3n2)c1 [compound 83] | 5.00 to 6.00 | – |
| c1ccc(Oc2nc(N3CCOCC3)c3ncc(Cc4cccnc4)cc3n2)cc1 [compound 84] | 5.00 to 6.00 | – |
| c1ccc(-c2nccc(-c3nc(N4CCOCC4)c4ncc(Cc5cccnc5)cc4n3)n2)cc1 [compound 85] | 6.00 to 7.00 | – |
| Fc1cccc(-c2nccc(-c3nc(N4CCOCC4)c4ncc(Cc5cccnc5)cc4n3)n2)c1 [compound 86] | 6.00 to 7.00 | – |
| c1ccc(Nc2nc(N3CCOCC3)c3ncc(C4CCCO4)cc3n2)cc1 (centres unmarked) [compound 87] | 6.00 to 7.00 | – |
| c1ccc(Oc2nc(N3CCOCC3)c3ncc(C4CCCO4)cc3n2)cc1 (centres unmarked) [compound 88] | 5.00 to 6.00 | – |
| Cc1cccc(/C=N/Nc2nc(N3CCOCC3)c3nc(-c4ccncc4)n(C)c3n2)c1 [drawing 308] | – | pIC50 [1]: 5.33 |
| Cc1cccc(/C=N/Nc2nc(N3CCOCC3)c3ncccc3n2)c1 [drawing 311] | – | pIC50 [1]: 5.09 |
